According to PMC9851200, “Multiparameter phenotypic screening for endogenous TFEB and TFE3 translocation identifies novel chemical series modulating lysosome function” (Autophagy, 2022):
Like-named read-outs stand apart in the source and are kept apart here.

Legend:
Assay in all cases: biochemical
Assay type in all cases: binding
[1] = target: T1, cellular kinases of SH-SY5Y cells (Homo sapiens, UniProt Q13523); settings: 2µM; SH-SY5Y cells; Labeling Site Lys2; CNILHADIKPDNILVNESK; read-out: KiNativ in-cell binding, % Inhibition, PRPF4B
T1 construct: endogenous in cells; host or cells: SH-SY5Y
From the text: (§1) As KINOMEscan is an in vitro assay, and as different cell types have variable kinase expression profiles we sought to determine the kinase binding profile in our SH-SY5Y TFEB-relocalization cell model. […] Bound kinases were pulled down and analyzed by mass spectrometry to determine the in situ kinase binding profile for each compound.

[2] = target: cellular kinases of SH-SY5Y cells (Homo sapiens, UniProt Q8TDX7); settings: 2µM; SH-SY5Y cells; labeling site Lys1; peptide AACLLDGVPVALKK
cellular kinases of SH-SY5Y cells (Homo sapiens, UniProt Q8TDX7), sequence (Q8TDX7 whole entry): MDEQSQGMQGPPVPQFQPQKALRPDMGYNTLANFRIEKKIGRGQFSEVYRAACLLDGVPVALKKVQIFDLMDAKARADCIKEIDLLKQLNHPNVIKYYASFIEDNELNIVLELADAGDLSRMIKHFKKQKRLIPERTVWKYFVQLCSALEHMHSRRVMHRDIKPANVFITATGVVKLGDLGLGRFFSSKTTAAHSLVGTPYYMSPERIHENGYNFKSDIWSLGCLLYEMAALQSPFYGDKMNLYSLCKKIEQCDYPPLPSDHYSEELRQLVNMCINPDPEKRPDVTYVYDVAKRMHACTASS
From the text: as §1

[3] = target: cellular kinases of SH-SY5Y cells (Homo sapiens, UniProt O14965); settings: 2µM, SH-SY5Y cells, read-out: KiNativ in-cell binding, % Inhibition, AURKA/AurA
cellular kinases of SH-SY5Y cells (Homo sapiens, UniProt O14965), sequence (O14965 whole entry): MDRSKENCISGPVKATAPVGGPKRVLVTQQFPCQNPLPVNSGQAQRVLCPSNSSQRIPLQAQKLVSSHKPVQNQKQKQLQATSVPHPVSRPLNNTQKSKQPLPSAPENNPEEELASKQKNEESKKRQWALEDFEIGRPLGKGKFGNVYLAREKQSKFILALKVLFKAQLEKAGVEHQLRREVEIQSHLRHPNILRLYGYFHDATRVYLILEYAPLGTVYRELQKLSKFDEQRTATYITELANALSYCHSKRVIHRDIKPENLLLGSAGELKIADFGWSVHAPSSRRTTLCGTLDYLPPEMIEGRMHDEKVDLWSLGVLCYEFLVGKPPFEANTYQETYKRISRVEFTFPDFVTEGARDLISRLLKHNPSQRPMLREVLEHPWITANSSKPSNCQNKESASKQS
From the text: as §1

[4] = target: T2, cellular kinases of SH-SY5Y cells (Homo sapiens, UniProt O96017); settings: 2µM, SH-SY5Y cells, read-out: KiNativ in-cell binding, % Inhibition, CHEK2/CHK2
T2 construct: endogenous in cells; host or cells: SH-SY5Y
T2 sequence (O96017 whole entry): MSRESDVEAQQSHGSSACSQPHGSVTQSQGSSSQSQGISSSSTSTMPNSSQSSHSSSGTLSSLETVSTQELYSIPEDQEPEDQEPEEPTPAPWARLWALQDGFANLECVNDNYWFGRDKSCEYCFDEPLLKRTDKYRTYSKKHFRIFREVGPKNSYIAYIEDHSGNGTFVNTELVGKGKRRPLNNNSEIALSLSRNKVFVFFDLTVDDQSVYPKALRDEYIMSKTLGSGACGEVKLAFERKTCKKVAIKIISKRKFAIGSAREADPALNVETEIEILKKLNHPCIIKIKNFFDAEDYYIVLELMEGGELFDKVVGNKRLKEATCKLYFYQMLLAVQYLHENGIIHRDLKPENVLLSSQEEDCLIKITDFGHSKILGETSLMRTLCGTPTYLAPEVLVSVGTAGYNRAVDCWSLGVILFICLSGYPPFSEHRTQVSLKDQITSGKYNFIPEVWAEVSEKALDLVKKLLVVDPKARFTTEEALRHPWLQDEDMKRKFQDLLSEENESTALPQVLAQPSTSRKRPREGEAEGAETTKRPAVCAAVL
From the text: as §1

[5] = target: T3, cellular kinases of SH-SY5Y cells (Homo sapiens, UniProt Q00537); settings: 2µM; SH-SY5Y cells; Labeling Site Lys2; DLKPQNLLINEK; read-out: KiNativ in-cell binding, % Inhibition, CDK17/PCTAIRE2
T3 construct: endogenous in cells; host or cells: SH-SY5Y
T3 sequence (Q00537 whole entry): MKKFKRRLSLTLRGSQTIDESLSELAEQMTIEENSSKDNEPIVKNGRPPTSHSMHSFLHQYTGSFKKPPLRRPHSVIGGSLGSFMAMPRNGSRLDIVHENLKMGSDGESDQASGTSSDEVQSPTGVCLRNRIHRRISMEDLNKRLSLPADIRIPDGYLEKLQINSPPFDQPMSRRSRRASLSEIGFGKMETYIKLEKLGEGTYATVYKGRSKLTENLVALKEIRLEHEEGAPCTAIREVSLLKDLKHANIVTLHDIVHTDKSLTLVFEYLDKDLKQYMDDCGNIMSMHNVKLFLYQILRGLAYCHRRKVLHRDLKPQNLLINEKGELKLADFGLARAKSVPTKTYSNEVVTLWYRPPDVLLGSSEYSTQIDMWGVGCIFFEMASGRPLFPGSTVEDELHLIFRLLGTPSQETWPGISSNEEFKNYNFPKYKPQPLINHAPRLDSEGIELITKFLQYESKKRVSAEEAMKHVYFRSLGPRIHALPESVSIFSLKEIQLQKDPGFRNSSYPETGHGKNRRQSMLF
From the text: as §1

[6] = target: T4, cellular kinases of SH-SY5Y cells (Homo sapiens, UniProt Q8TCG2); settings: 2µM; SH-SY5Y cells; labeling site ATP; peptide SEEPYGQLNPKWTK
T4 construct: endogenous in cells; host or cells: SH-SY5Y
From the text: as §1

[7] = target: cellular kinases of SH-SY5Y cells (Homo sapiens, UniProt O75716); settings: 2µM; SH-SY5Y cells; Labeling Site Lys2; DLKPTNILLGDEGQPVLMDLGSMNQACIHVEGSR; read-out: KiNativ in-cell binding, % Inhibition, STK16
From the text: as §1

[8] = target: T5, cellular kinases of SH-SY5Y cells (Homo sapiens, UniProt Q16513); settings: 2µM; SH-SY5Y cells; labeling site Lys2; peptide DLKLDNLLLDTEGFVK
T5 construct: endogenous in cells; host or cells: SH-SY5Y
T5 sequence (Q16513 whole entry): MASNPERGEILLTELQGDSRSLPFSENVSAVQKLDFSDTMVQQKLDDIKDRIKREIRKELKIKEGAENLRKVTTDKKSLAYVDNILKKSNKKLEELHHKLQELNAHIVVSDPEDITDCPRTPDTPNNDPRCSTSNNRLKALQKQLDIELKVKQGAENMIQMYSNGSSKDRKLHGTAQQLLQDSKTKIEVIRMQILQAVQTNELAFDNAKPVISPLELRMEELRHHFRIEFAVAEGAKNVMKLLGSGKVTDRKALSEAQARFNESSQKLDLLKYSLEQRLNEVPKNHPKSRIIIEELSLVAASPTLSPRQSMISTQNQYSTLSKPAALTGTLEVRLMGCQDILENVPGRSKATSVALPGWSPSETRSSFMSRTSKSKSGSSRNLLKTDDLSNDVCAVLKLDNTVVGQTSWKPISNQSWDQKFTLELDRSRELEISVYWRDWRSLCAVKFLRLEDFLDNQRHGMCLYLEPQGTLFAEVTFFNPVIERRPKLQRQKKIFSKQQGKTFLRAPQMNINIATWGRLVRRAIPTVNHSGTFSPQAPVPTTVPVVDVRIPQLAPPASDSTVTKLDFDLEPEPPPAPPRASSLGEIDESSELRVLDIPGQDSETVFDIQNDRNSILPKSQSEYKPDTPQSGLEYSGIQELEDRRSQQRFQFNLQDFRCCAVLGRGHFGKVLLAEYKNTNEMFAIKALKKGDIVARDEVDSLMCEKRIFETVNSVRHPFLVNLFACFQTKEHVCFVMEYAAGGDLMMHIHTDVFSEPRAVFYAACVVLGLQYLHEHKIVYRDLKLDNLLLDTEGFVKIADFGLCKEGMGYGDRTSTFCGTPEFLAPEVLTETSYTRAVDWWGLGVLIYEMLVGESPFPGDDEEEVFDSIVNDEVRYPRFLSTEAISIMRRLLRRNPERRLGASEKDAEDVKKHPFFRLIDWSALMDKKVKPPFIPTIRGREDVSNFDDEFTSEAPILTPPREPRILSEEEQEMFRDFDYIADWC
From the text: as §1

[9] = target: cellular kinases of SH-SY5Y cells (Homo sapiens, UniProt P09769); settings: 2µM; SH-SY5Y cells; Labeling Site Activation Loop; LIKDDEYNPCQGSKFPIK; read-out: KiNativ in-cell binding, % Inhibition, FGR
cellular kinases of SH-SY5Y cells (Homo sapiens, UniProt P09769), sequence (P09769 whole entry): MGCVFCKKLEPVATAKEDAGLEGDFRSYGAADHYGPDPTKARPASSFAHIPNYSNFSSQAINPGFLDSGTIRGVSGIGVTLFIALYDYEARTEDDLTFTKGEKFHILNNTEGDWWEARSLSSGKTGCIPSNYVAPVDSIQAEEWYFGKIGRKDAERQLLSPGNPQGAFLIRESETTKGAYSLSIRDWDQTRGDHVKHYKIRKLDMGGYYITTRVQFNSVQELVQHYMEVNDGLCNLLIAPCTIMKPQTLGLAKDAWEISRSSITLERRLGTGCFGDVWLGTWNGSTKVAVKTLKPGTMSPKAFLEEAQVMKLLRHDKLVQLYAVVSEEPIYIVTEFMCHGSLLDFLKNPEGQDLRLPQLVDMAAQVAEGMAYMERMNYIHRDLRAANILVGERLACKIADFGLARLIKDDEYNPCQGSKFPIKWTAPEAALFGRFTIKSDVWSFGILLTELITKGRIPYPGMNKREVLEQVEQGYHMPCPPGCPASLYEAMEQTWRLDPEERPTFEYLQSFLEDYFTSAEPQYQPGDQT
From the text: as §1

[10] = target: cellular kinases of SH-SY5Y cells (Homo sapiens, UniProt Q13557); settings: 2µM; SH-SY5Y cells; Labeling Site Lys1; IPTGQEYAAKIINTKK; read-out: KiNativ in-cell binding, % Inhibition, CaMK2d
From the text: as §1

[11] = target: T6, cellular kinases of SH-SY5Y cells (Homo sapiens, UniProt Q8IZL9); settings: 2µM; SH-SY5Y cells; Labeling Site Lys2; DLKPANLLISASGQLK; read-out: KiNativ in-cell binding, % Inhibition, CDK20
T6 construct: endogenous in cells; host or cells: SH-SY5Y
From the text: as §1

[12] = target: cellular kinases of SH-SY5Y cells (Homo sapiens, UniProt Q8IU85); settings: 2µM, SH-SY5Y cells
cellular kinases of SH-SY5Y cells (Homo sapiens, UniProt Q8IU85), sequence (Q8IU85 whole entry): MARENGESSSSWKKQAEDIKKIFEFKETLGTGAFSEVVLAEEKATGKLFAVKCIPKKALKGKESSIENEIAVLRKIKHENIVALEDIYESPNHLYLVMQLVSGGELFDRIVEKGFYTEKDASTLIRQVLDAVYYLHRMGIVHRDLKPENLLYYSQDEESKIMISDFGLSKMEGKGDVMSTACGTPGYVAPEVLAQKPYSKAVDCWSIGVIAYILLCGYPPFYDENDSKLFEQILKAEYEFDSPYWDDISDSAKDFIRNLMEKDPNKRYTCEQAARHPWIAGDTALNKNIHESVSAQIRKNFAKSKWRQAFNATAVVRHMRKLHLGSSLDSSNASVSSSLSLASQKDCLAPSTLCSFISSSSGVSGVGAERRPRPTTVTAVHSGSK
From the text: as §1

[13] = target: T7, cellular kinases of SH-SY5Y cells (Homo sapiens, UniProt O60307); settings: 2µM; SH-SY5Y cells; Labeling Site Lys2; DLKPDNLLITSLGHIK; read-out: KiNativ in-cell binding, % Inhibition, MAST3
T7 construct: endogenous in cells; host or cells: SH-SY5Y
From the text: as §1

[14] = target: cellular kinases of SH-SY5Y cells (Homo sapiens, UniProt P24941); settings: 2µM, SH-SY5Y cells
From the text: as §1

[15] = target: cellular kinases of SH-SY5Y cells (Homo sapiens, UniProt P43405)
From the text: as §1

[16] = target: cellular kinases of SH-SY5Y cells (Homo sapiens, UniProt O00329); settings: 2µM; SH-SY5Y cells; Labeling Site ATP; VNWLAHNVSKDNRQ; read-out: KiNativ in-cell binding, % Inhibition, PIK3CD
From the text: as §1

[17] = target: cellular kinases of SH-SY5Y cells (Homo sapiens, UniProt Q00535); settings: 2µM, SH-SY5Y cells, read-out: KiNativ in-cell binding, % Inhibition, CDK5
cellular kinases of SH-SY5Y cells (Homo sapiens, UniProt Q00535), sequence (Q00535 whole entry): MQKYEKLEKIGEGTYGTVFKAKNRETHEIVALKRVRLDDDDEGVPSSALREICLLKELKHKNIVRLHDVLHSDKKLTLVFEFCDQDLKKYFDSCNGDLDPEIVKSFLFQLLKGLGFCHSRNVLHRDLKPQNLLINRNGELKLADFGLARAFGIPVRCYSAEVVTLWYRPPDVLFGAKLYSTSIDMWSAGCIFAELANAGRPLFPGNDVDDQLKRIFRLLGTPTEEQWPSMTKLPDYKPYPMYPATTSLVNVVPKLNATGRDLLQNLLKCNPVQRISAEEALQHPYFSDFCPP
From the text: as §1

[18] = target: cellular kinases of SH-SY5Y cells (Homo sapiens, UniProt Q96GD4); settings: 2µM; SH-SY5Y cells; Labeling Site Lys1; SHFIVALKVLFK; read-out: KiNativ in-cell binding, % Inhibition, AURKB/AurB
From the text: as §1

[19] = target: T8, cellular kinases of SH-SY5Y cells (Homo sapiens, UniProt Q92918); settings: 2µM, SH-SY5Y cells, read-out: KiNativ in-cell binding, % Inhibition, MAP4K1/HPK1
T8 construct: endogenous in cells; host or cells: SH-SY5Y
T8 sequence (Q92918 whole entry): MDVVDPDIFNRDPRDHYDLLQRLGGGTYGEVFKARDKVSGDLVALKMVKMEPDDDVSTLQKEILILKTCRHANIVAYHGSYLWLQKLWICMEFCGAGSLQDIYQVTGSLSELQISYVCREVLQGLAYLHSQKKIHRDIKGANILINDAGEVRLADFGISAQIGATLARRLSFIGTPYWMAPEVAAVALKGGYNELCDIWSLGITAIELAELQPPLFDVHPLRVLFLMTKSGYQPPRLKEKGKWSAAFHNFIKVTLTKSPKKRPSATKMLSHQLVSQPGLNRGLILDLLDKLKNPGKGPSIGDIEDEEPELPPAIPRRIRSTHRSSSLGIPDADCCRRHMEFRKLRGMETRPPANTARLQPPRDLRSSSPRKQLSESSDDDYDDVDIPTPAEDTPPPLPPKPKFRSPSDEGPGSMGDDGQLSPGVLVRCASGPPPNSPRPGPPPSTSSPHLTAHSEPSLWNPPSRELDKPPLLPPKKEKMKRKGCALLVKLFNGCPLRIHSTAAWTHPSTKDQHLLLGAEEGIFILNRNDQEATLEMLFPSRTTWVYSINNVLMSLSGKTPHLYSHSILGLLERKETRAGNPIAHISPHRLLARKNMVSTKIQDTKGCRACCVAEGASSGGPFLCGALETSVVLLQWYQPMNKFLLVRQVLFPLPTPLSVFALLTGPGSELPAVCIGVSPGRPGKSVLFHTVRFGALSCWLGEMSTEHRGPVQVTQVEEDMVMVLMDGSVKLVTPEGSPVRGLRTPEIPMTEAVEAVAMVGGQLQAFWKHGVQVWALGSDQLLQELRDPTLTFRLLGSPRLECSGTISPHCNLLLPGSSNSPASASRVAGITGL
From the text: as §1

Cc1cccc(-c2nc(Nc3ccc4ncsc4c3)c3ccccc3n2)n1 [NK140]
inhibition at 2 µM [1]: 32.3%
KiNativ in-cell binding, NEK7 [2]: -3.8
inhibition at 2 µM ([3]; Labeling Site Lys1, FILALKVLFK): 8.2%
inhibition at 2 µM ([3]; Labeling Site Lys2, DIKPENLLLGSAGELK): 18%
inhibition at 2 µM ([4]; Labeling Site Lys1, VAIKIISK): 7.7%
inhibition at 2 µM ([4]; Labeling Site Lys2, DLKPENVLLSSQEEDCLIK): 15.3%
inhibition at 2 µM [5]: 13.2%
KiNativ in-cell binding, PI4K2B [6]: 11.9
inhibition at 2 µM [7]: -42.2%
KiNativ in-cell binding, PKN2 [8]: -28.2
inhibition at 2 µM [9]: 20.4%
inhibition at 2 µM [10]: 30.5%
inhibition at 2 µM [11]: 9.5%
inhibition at 2 µM ([12]; Labeling Site Lys1, LFAVKCIPK, read-out: KiNativ in-cell binding, % Inhibition, CaMK1d): -23%
KiNativ in-cell binding, CaMK1d ([12]; labeling site Lys2, peptide DLKPENLLYYSQDEESK): -24.1
inhibition at 2 µM [13]: 1.2%
inhibition at 2 µM ([14]; Labeling Site Lys1, LTGEVVALKK, read-out: KiNativ in-cell binding, % Inhibition, CDK2): 21.6%
KiNativ in-cell binding, CDK2 ([14]; labeling site Lys2, peptide DLKPQNLLINTEGAIK): 6.0
KiNativ in-cell binding, SYK [15]: -121.1
inhibition at 2 µM ([15]; 2µM, SH-SY5Y cells, Labeling Site Activation Loop, AQTHGKWPVK, read-out: KiNativ in-cell binding, % Inhibition, SYK): 0.443%
KiNativ in-cell binding, SYK ([15]; 2µM, SH-SY5Y cells, labeling site Activation Loop, peptide ISDFGLSKALR): -15.0
inhibition at 2 µM [16]: -29.2%
inhibition at 2 µM ([17]; Labeling Site Lys1, NRETHEIVALKR): -44.9%
inhibition at 2 µM ([17]; Labeling Site Lys2, DLKPQNLLINR): -39%
inhibition at 2 µM [18]: 27.7%
inhibition at 2 µM ([19]; Labeling Site Lys1, DKVSGDLVALKMVK): 6.9%
inhibition at 2 µM ([19]; Labeling Site Lys2, DIKGANILINDAGEVR): 30.2%
